Measured values from US9981920B2, “Inhibitors of histone deacetylase” (Rodin Therapeutics, Inc., priority 2014, dated 2018).

The compounds below were run against T1, HDAC2 (Homo sapiens, UniProt Q92769) (assay: Reporter displacement assay (HDAC2 Kd)). Details: HDAC2 with C-terminal HIS-Tag 20 nM, 180 nM reporter probe, read after 4 h; Kd by Cheng Prusoff from probe displacement.
T1 construct: purchased Proteros
Format: binding
Protocol: HDAC2 containing a C-terminal HIS-Tag (Proteros) and fluorescently-labeled anti-HIS-antibody are diluted in one vial in assay buffer 50 mM Tris, pH 8.0, 1 mM DTT, 150 mM NaCl, and 0.01% Tween20. Components are pre-incubated for 30 min, then a small volume of reporter probe (Proteros) is added from a highly concentrated stock and incubation is continued for another 30 min. Final concentrations after adding the reporter probe amount to 20 nM HDAC2, 4 nM antibody, and 180 nM probe.
Ten μl/well of pre-formed complex are transferred into 384 well assay plates (Corning). Compounds to be profiled are serially diluted from 1×10^1-5.7×10^−5 mM in DMSO and 60 nl are added to assay plates by pintool transfer (CybiWell, Cybio). Fluorescence intensity signal is read after 4 h in a Pherastar FS (BMG Labtech) at 337/665 nm.
For Kd determination, percent probe displacement values are calculated for each compound concentration and plotted against the compound concentration. IC50-like values (corresponding to 50% probe displacement) are calculated using standard fitting algorithms. Since the reporter probe is used at a concentration reflecting its own Kd value, compound Kd values can be calculated according to the Cheng Prusoff equation.
In the table, “A” indicates a Kd value of less than 0.1 μM; “B” a Kd value of between 0.1 μM and 1.0 μM; “C” a Kd value of greater than 1.0 μM and less than or equal to 10.0 μM; and “D” a Kd value of greater than 10.0 μM.

T1 sequence (Q92769 whole entry): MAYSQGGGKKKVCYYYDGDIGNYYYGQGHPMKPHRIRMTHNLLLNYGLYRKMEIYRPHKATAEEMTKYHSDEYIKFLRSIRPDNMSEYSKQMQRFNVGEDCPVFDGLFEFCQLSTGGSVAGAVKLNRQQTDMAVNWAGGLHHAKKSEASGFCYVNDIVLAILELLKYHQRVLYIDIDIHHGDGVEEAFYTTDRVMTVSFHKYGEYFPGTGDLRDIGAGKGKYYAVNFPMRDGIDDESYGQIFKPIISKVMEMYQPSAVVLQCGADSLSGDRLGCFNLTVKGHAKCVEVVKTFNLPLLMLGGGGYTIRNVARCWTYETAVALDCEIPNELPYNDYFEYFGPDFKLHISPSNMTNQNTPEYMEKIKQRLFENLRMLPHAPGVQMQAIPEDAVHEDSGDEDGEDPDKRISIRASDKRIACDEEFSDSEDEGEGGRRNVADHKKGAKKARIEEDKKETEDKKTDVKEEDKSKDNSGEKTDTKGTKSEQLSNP

Row | Compound | Kd [nM]
1 | CC(=O)N(C)c1ccc(C(=O)CSc2nc(O)cc(=O)[nH]2)cc1 [Compound 133] | < 100
2 | C=CCn1c(SCC(O)c2ccc(C)cc2)nc(O)cc1=O (stereo not shown) [Compound 108] | 100 to 1000
3 | Cc1cccc(C(=O)CSc2nc(O)cc(=O)n2C)c1 [Compound 139] | 100 to 1000
4 | Cc1ccc(C(=O)CSc2nc(C)cc(=O)[nH]2)cc1 [Compound 104] | 100 to 1000
5 | Cc1ccc(C(=O)CSc2nc(O)c3ccccc3n2)cc1 [Compound 100] | 1000 to 10000
6 | Cn1c(SCC(=O)c2ccc(Cl)cc2)nc(O)cc1=O [Compound 143] | 100 to 1000
7 | Cn1c(SCC(=O)c2cccc(Cl)c2)nc(O)cc1=O [Compound 144] | 100 to 1000
8 | CC(=O)Nc1ccc(/C(CSc2nc(O)cc(=O)[nH]2)=N\O)cc1 [Compound 114] | 1000 to 10000
9 | O=C(CSc1nc(O)cc(=O)[nH]1)c1ccc2[nH]cnc2c1 [Compound 138] | 100 to 1000
10 | Cn1c(SCC(=O)c2ccc(F)cc2)nc(O)cc1=O [Compound 141] | 100 to 1000
11 | CC(=O)Nc1ccc(C(=O)CSc2nc(O)cc(=O)n2C2CC2)cc1 [Compound 136] | 100 to 1000
12 | C=CCn1c(SCC(=O)c2ccc(C)cc2)nc(O)cc1=O [Compound 101] | < 100
13 | CC(=O)Nc1ccc(C(=O)CSc2nc(O)cc(=O)n2-c2ccccc2)cc1 [Compound 132] | 100 to 1000
14 | CC(=O)Nc1ccc(C(=O)CSc2nc(O)cc(=O)n2C2CCCC2)cc1 [Compound 131] | < 100
15 | O=C(CSc1nc(O)cc(=O)[nH]1)c1ccc(NC(=O)c2ccccc2)cc1 [Compound 130] | 100 to 1000
16 | CC(=O)Nc1ccc(C(=O)CSc2nc(O)c(C3CCCC3)c(=O)[nH]2)cc1 [Compound 123] | < 100
17 | CCc1ccc(C(=O)CSc2nc(C)cc(=O)[nH]2)cc1 [Compound 105] | 1000 to 10000
18 | O=C(CSc1nc(O)c(Cc2ccccc2)c(=O)[nH]1)c1ccccc1 [Compound 111] | 100 to 1000
19 | CCn1c(SCC(=O)c2ccc(C)cc2)nc(O)cc1=O [Compound 115] | 100 to 1000
20 | O=C(CSc1nc(O)cc(=O)[nH]1)c1ccc(NC(=O)C(F)(F)F)cc1 [Compound 128] | < 100
21 | CCn1c(SCC(=O)c2ccc(NC(C)=O)cc2)nc(O)cc1=O [Compound 117] | < 100
22 | Cc1ccc(C(=O)COc2nc(C)cc(=O)[nH]2)cc1 [Compound 109] | > 10000
23 | CCc1c(O)nc(SCC(=O)c2ccc(OC)cc2)[nH]c1=O [Compound 103] | < 100

Row | Compound | Kd [nM]
24 | Cn1c(SCC(=O)c2cccc(F)c2)nc(O)cc1=O [Compound 142] | < 100
25 | Cc1ccc(C(=O)CSc2nc(O)cc(=O)[nH]2)cc1 [Compound 107] | < 100
26 | Cn1c(SCC(=O)c2ccccc2)nc(O)c(-c2ccccc2)c1=O [Compound 140] | 100 to 1000
27 | CC(C)C(=O)Nc1ccc(C(=O)CSc2nc(O)cc(=O)[nH]2)cc1 [Compound 129] | < 100
28 | CC(=O)Nc1ccc(C(=O)CSc2nc(O)cc(=O)[nH]2)cc1 [Compound 106] | < 100
29 | O=C(CSc1nc(O)c(-c2ccccc2)c(=O)[nH]1)c1ccc(NC(=O)c2ccccc2)cc1 [Compound 125] | < 100
30 | Cc1ccc(C(=O)CSc2nc(=O)c3ccccc3n2C)cc1 [Compound 145] | 100 to 1000
31 | Nc1ccc(C(=O)CSc2nc(O)cc(=O)[nH]2)cc1 [Compound 127] | 100 to 1000
32 | CC(=O)Nc1ccc(C(=O)CSc2nc(O)cc(=O)n2C(C)C)cc1 [Compound 118] | < 100
33 | COc1ccc(C(=O)CSc2nc(O)cc(=O)[nH]2)cc1 [Compound 120] | 100 to 1000
34 | CN(C)c1ccc(C(=O)CSc2nc(O)cc(=O)[nH]2)cc1 [Compound 134] | 100 to 1000
35 | CC(C)(C)OC(=O)Nc1ccc(C(=O)CSc2nc(O)cc(=O)[nH]2)cc1 [Compound 135] | 100 to 1000
36 | CCn1c(SCC(=O)c2ccccc2)nc(O)cc1=O [Compound 102] | < 100
37 | COc1ccc(C(=O)CSc2nc(O)c(-c3ccccc3)c(=O)[nH]2)cc1 [Compound 121] | 100 to 1000
38 | CC(=O)Nc1ccc(C(=O)CSc2nc3ccccc3c(=O)[nH]2)cc1 [Compound 124] | 100 to 1000
39 | Cc1ccc(C(=O)CSc2nc(O)cc(=O)n2C(C)C)cc1 [Compound 113] | 100 to 1000
40 | CC(=O)Nc1ccc(C(=O)CSc2nc(O)c(-c3ccccc3)c(=O)[nH]2)cc1 [Compound 119] | < 100
41 | Nc1ccc(C(=O)CSc2nc(O)c(-c3ccccc3)c(=O)[nH]2)cc1 [Compound 122] | 100 to 1000
42 | CC(C)(C)OC(=O)Nc1ccc(C(=O)CSc2nc(O)c(-c3ccccc3)c(=O)[nH]2)cc1 [Compound 126] | 100 to 1000
43 | Cc1ccc(C(=O)CSc2nc(O)c(-c3ccccc3)c(=O)[nH]2)cc1 [Compound 110] | < 100
44 | CC(=O)Nc1ccc(C(=O)CSc2nc(O)cc(=O)n2C)cc1 [Compound 116] | < 100
45 | O=C(CSc1nc(O)cc(=O)[nH]1)c1ccc(N2CCCC2=O)cc1 [Compound 137] | < 100
46 | Cc1ccc(C(=O)CSc2nc(O)cc(=O)n2C)cc1 [Compound 112] | 100 to 1000
